Assay results as given in patent publication US20240025903A1, “Bicyclic Compounds and Uses Thereof for the Treatment of Diseases” (Athira Pharma, Inc., priority 2020, published 2024).
Read-outs that look alike come from different tables or passages of the source.

How the values were obtained:
MDCK cells = test: Cell scattering behavior assay; type: cell-based; conditions: 5 ng/mL HGF, 24 hours, normalized particle count vs HGF alone
Procedure, shortened: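 MDCK cells starved 2 h in serum-free DMEM, then treated 24 h at 37 °C with compounds plus 5 ng/mL HGF. Cells were ethanol-fixed, WGA488-stained and imaged. Scattering was scored as particle count normalized to stained area, with activity taken as a statistical increase in normalized particle count over HGF alone.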

[1] = Non-specific protein binding (rapid equilibrium dialysis); type: in vitro ADME, Sprague-Dawley rats; conditions: both sexes, Sprague-Dawley, RED device, 4-hour incubation at 37° C.
Description: Plasma and tissue exposures of exemplary compounds were scaled by their non-specific affinity for protein binding in target tissues or fluids to determine the fraction of compound available for interaction with the target. Non-specific binding was determined in blood plasma and brain homogenate collected from mixed-sex Sprague-Dawley rats.
Known concentrations of test compounds were mixed with plasma or brain homogenate and incubated in the donor chamber of a rapid equilibrium dialysis (RED) device with empty PBS buffer in the receiving chamber. After a 4-hour incubation at 37° C. in an orbital shaking incubator, compound in each chamber was quantified by LC-MS/MS. The unbound fraction (fu,tissue) was calculated using the following formula:
[formula] • where: • fu,tissue is the unbound fraction in the tissue; • fu,homogenate is the ratio of concentration in the buffer chamber to concentration in the sample chamber; and • D is the dilution factor used to produce the sample.

[2] = Parallel artificial membrane permeability assay (PAMPA); type: in vitro ADME; conditions: PBS, room temperature
Description: Bioavailable drugs must permeate the cellular membranes of the lining of the digestive tract. To estimate the penetrability of exemplary compounds, the in vitro parallel artificial membrane permeability assay (PAMPA) was utilized.
Test compounds must have a standard curve in the final read plate to determine partitioned concentration of each drug. A 6-point standard curve was prepared for each compound from 0 to 200 μM in phosphate-buffered saline (PBS).
Test compound solution (300 μL in PBS) was added to the donor (bottom) well of the PAMPA plate in 5 replicates and PBS vehicle (200 μL) was added to the acceptor (top) wells of appropriate wells to match the loading of the donor plate. The bottom and top of the PAMPA plates were then sandwiched together. The PAMPA plates were then incubated at room temperature for 5 hours. After incubation, 150 μL of donor solution was added to a UV compatible plate containing the corresponding standard curve. 150 μL of acceptor well solution was added adjacent to the corresponding standard curve and donor well samples for that compound. The plate was then read using a UV plate reader.
Permeability and membrane retention were then calculated based on the following formulas:
Permeability (cm/s): (Pe)(cm/s)={−ln [1−CA(t)/Ceq]}/[A*(1/VD+1/VA)*t] (equation 1) • where: • A=filter area (0.3 cm^2); • VD=donor well volume (0.3 mL); • VA=acceptor well volume (0.2 mL); • t=incubation time (seconds); • CA(t)=compound concentration in acceptor well at time t; • CD(t)=compound concentration in donor well at time t; and • Ceq=[CD(t)*VD+CA(t)*VA]/(VD+VA).
Membrane Retention (R)=1−[CD(t)*VD+CA(t)*VA]/(C0*VD) (equation 2) • where: • CD(t), VD, CA(t), and VA are as defined for equation 1, and • C0=initial concentration in donor well (200 uM).

In vivo pharmacokinetics = test: In vivo pharmacokinetics; design: species or system Sprague-Dawley rats; conditions: both sexes, Sprague-Dawley, rat; for Tmax: plasma; for AUC: dose-corrected plasma AUC; for Cmax: dose-corrected plasma Cmax
Description: Administration of exemplary compounds by selected routes followed by blood collection and compound quantification in plasma was used to determine the pharmacokinetic (PK) profile of the compounds. Compounds were administered to mixed-sex Sprague-Dawley rats of at least 250 grams by dissolving the test compound in DMSO and then diluting the compound into an appropriate vehicle, either saline or saline and poly-ethylene glycol. Dosing was accomplished by either tail vein puncture (IV) or oral gavage (PO), and animals were administered compound according to their weight at 1 mL/kg. At selected intervals following administration (10, 20, 40, 60, 120, and 360 minutes), blood was collected by tail vein blood draw. Whole blood was then processed by centrifugation to produce plasma. Compound content in plasma samples was quantified by LC-MS/MS and compared to an internal standard and standard curves to determine concentration accurately. Plasma concentrations were then averaged for each time point and plotted as a function of time. Area under the curve was calculated by integration of the curve, Cmax was the highest concentration achieved in plasma, and Tmax was determined by the timing of Cmax.

[3] = Oral availability calculation; type: in vivo, Sprague-Dawley rats; conditions: both sexes, Sprague-Dawley, plasma; rat, dose corrected AUC PO / dose corrected AUC IV x 100
Excerpt: Oral bioavailability is critical to developing small molecule therapeutics for oral administration. Calculations of oral bioavailability (% F) are accomplished by comparing in vivo pharmacokinetic data (Example B7) using IV dosing as the maximum possible exposure and determining the exposure rate after PO administration. In these studies, dose corrected AUC from PO administration was divided by dose corrected AUC from IV administration and multiplied by 100 to yield the % F. Results are shown in Table 9.

fraction unbound at 4 h ([1]; rat blood plasma, read-out: Unbound Fraction Plasma): < 0.1
fraction unbound at 4 h ([1]; rat brain homogenate, read-out: Unbound Fraction Brain): < 0.1
Papp at 5 h, 200 µM [2]: < 2 ×10⁻⁶ cm/s
Tmax (In vivo pharmacokinetics; IV (tail vein), read-out: TMAX IV): < 30 min
Tmax (In vivo pharmacokinetics; PO (oral gavage), read-out: TMAX PO): 30 to 60 min
AUC (In vivo pharmacokinetics; IV (tail vein), read-out: AUC IV): 100 to 999 ng·h/mL
Cmax (In vivo pharmacokinetics; IV (tail vein), read-out: CMAX IV): 100 to 999 ng/mL
AUC (In vivo pharmacokinetics; PO (oral gavage), read-out: AUC PO): 1 to 100 ng·h/mL
Cmax (In vivo pharmacokinetics; PO (oral gavage), read-out: CMAX PO): 1 to 100 ng/mL
bioavailability [3]: 1 to 25%
Structure (SMILES): CCC(C)CN1CC2N(Cc3ccc(C(F)(F)F)cc3)CCC(=O)N2[C@@H](C)C1=O (some centres unmarked) [Compound 5a]
Potency (cell scattering) (MDCK cells): ++++ (++++ indicates maximum potency at or above 0.1 nM)
